Key:
[1] = biological target: T1, airway epithelial sodium currents (epithelial Na+ channel, ENaC) (Canis lupus familiaris, UniProt A0A8I3MKE6+A0A8I3Q679+Q95165); assay: In vitro measure of sodium channel blocking activity (short circuit current, airway epithelial monolayers in Ussing chambers); type: cell-based, human, dog, sheep or rodent; conditions: lumenal drug inhibition of ISC in airway epithelial monolayers, value ± spread, n in same cell
T1 sequence (A0A8I3Q679 1-649): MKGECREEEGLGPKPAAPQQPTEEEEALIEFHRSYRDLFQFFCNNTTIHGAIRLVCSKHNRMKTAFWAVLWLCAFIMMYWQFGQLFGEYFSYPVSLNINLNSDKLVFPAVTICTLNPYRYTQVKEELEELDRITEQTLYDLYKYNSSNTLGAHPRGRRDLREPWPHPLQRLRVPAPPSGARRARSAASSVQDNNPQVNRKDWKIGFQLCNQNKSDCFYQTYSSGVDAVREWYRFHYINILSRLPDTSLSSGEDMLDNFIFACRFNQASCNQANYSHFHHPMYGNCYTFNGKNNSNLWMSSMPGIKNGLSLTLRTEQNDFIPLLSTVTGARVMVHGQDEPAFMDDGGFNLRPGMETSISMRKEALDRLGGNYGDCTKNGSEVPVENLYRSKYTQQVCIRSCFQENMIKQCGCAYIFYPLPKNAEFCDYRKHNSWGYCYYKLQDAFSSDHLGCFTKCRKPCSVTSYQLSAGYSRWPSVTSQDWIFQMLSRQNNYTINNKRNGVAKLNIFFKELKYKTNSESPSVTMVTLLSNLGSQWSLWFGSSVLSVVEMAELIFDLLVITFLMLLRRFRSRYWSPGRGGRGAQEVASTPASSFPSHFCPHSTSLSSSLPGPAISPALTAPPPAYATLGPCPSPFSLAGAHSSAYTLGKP
T1 sequence (Q95165 1-641): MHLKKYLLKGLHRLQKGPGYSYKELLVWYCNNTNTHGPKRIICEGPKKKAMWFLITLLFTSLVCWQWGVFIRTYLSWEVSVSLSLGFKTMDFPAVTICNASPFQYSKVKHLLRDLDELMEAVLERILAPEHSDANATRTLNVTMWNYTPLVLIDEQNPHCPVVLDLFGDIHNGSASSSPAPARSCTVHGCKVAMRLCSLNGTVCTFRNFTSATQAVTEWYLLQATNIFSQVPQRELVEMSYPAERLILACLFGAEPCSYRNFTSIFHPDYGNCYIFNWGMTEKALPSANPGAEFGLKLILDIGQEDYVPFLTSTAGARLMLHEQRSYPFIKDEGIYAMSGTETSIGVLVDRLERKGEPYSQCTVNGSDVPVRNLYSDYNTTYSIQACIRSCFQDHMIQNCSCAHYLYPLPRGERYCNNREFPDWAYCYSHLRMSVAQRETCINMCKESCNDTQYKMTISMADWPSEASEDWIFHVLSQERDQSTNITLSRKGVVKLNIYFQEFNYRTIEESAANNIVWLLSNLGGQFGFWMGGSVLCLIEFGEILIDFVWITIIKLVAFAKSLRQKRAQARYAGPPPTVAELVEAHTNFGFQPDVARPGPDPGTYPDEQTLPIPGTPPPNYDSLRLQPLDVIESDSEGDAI
T1 sequence (A0A8I3MKE6 1-646): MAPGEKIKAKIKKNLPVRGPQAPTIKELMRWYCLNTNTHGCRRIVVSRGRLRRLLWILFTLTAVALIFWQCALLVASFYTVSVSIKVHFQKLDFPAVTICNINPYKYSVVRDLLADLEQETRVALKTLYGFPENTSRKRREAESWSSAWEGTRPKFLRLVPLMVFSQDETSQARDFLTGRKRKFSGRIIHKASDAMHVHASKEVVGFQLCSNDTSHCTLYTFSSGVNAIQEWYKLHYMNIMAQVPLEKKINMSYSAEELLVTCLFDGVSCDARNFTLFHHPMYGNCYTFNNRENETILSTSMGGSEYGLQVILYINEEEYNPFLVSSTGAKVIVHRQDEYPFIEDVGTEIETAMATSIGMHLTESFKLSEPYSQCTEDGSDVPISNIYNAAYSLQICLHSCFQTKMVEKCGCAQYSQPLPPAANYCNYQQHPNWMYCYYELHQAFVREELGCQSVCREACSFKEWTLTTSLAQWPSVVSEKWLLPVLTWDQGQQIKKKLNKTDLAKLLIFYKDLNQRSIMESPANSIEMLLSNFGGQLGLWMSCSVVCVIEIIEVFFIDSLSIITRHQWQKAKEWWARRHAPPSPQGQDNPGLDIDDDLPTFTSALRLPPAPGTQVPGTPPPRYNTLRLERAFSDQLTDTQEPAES
Description: In Vitro Measure of Sodium Channel Blocking Activity and Reversibility
One assay used to assess mechanism of action and/or potency of the compounds of the present invention involves the determination of lumenal drug inhibition of airway epithelial sodium currents measured under short circuit current (ISC) using airway epithelial monolayers mounted in Ussing chambers. Cells obtained from freshly excised human, dog, sheep or rodent airways are seeded onto porous 0.4 micron Snapwell™ Inserts (CoStar), cultured at air-liquid interface (ALI) conditions in hormonally defined media, and assayed for sodium transport activity (ISC) while bathed in Krebs Bicarbonate Ringer (KBR) in Using chambers. All test drug additions are to the lumenal bath with half-log dose addition protocols (from 1×10^−11 M to 3×10^−5M), and the cumulative change in ISC (inhibition) recorded. All drugs are prepared in dimethyl sulfoxide as stock solutions at a concentration of 1×10^−2 M and stored at −20° C. Eight preparations are typically run in parallel; two preparations per run incorporate amiloride and/or benzamil as positive controls. After the maximal concentration (5×10^−5 M) is administered, the lumenal bath is exchanged three times with fresh drug-free KBR solution, and the resultant ISC measured after each wash for approximately 5 minutes in duration. Reversibility is defined as the percent return to the baseline value for sodium current after the third wash. All data from the voltage clamps are collected via a computer interface and analyzed off-line.
Dose-effect relationships for all compounds are considered and analyzed by the Prism 3.0 program. IC50 values, maximal effective concentrations, and reversibility are calculated and compared to amiloride and benzamil as positive controls.

SMILES	EC50 [1]	melting point
CN(C)C(=S)Oc1ccc(CCCCNC(=N)NC(=O)c2nc(Cl)c(N)nc2N)cc1 [compound 17846]	11 ± 6 nM	–
N=C(NCCCCc1ccc(OCCCc2nnn[nH]2)cc1)NC(=O)c1nc(Cl)c(N)nc1N [compound 17926]	25 ± 9 nM	–
N=C(NCCCCc1ccc(OCC(=O)N(CCO)CCO)cc1)NC(=O)c1nc(Cl)c(N)nc1N	–	114 to 121.16 °C
N=C(NCCCCc1ccc(OCC(=O)Nc2ccccc2)cc1)NC(=O)c1nc(Cl)c(N)nc1N [compound 17482]	16 ± 4 nM	–
N=C(NCCCCc1ccc(OCCCc2ncc[nH]2)cc1)NC(=O)c1nc(Cl)c(N)nc1N [compound 23022]	12 ± 3 nM	–
N=C(NCCCCc1ccc(OCC(O)COCC(O)CO)cc1)NC(=O)c1nc(Cl)c(N)nc1N (centres unmarked) [compound 15143]	7 ± 3 nM	–
CC(C)[C@H](NS(=O)(=O)c1ccc(CCCCNC(=N)NC(=O)c2nc(Cl)c(N)nc2N)cc1)C(N)=O [compound 19008]	9 ± 1 nM	–
N=C(NCCCCc1ccc(OCC(=O)Nc2ncc[nH]2)cc1)NC(=O)c1nc(Cl)c(N)nc1N [compound 16437]	13 ± 7 nM	–
N#CCOc1ccc(CCCCNC(=N)NC(=O)c2nc(Cl)c(N)nc2N)cc1 [compound 16208]	11 ± 4 nM	–
CN(C)C(=O)COc1ccc(CCCCNC(=N)NC(=O)c2nc(Cl)c(N)nc2N)cc1 [compound 16313]	15 ± 4 nM	–
N=C(NCCCCc1ccc(OCC(=O)NCC(N)=O)cc1)NC(=O)c1nc(Cl)c(N)nc1N [compound 16314]	13 ± 2 nM	–
